Data taken from the NIST ThermoML archive (doi:10.1021/je400529k).
Values joined by “and” are separate entries in the source; they are usually repeats but may differ in a detail not shown here. Identical values can stand only once.

How the values were obtained:
[1] = refractive index (Na D-line) (dimensionless); conditions: 101.33 kPa, Liquid, Standard Abbe refractometry
[2] = 101 kPa, Liquid; for viscosity: Capillary tube (Ostwald / Ubbelohde) method; for mass density: Vibrating tube method
[3] = refractive index (Na D-line) (dimensionless); xn = mol fraction of the nth substance listed; conditions: 101 kPa, Liquid, Standard Abbe refractometry
[4] = xn = mol fraction of the nth substance listed; conditions: 101 kPa, Liquid; for viscosity: Capillary tube (Ostwald / Ubbelohde) method; for mass density: Vibrating tube method

C1C[C@@H]2[C@H]3CC[C@H](C3)[C@@H]2C1 [exo-tetrahydrodicyclopentadiene]
Conditions	mass density, [2]	refractive index, [1]	viscosity, [2] [mPa·s]
293.15 K	935.72 kg/m3	1.4874	2.992
298.15 K	931.84 kg/m3	–	2.71
303.15 K	927.94 kg/m3 and 927.9 kg/m3	1.4831	2.467
308.15 K	924.02 kg/m3	–	2.255
313.15 K	920.11 kg/m3	1.4786	2.069
318.15 K	916.18 kg/m3	–	1.907

CC1CCC(C)C(C)C1 (stereo not drawn) [1,2,4-trimethylcyclohexane]
Conditions	mass density, [2] [kg/m3]	refractive index, [1]	viscosity, [2] [mPa·s]
293.15 K	790.8	1.4331	0.886
298.15 K	786.92	–	0.827
303.15 K	783.03	1.4285	0.774
308.15 K	779.13	–	0.727
313.15 K	775.23	1.424	0.686
318.15 K	771.32	–	0.648

CC1CCCCC1 [methylcyclohexane]
Conditions	mass density, [2] [kg/m3]	refractive index, [1]	viscosity, [2] [mPa·s]
293.15 K	769.35	1.422	0.733
298.15 K	765.04	–	0.687
303.15 K	760.71	1.4172	0.646
308.15 K	756.36	–	0.609
313.15 K	751.99	1.4118	0.576
318.15 K	747.6	–	0.546

C1C[C@@H]2[C@H]3CC[C@H](C3)[C@@H]2C1 [exo-tetrahydrodicyclopentadiene] + CCC1CCCCC1
x1 = 1
Conditions	mass density, [4] [kg/m3]	refractive index, [3]	viscosity, [4] [mPa·s]
293.15 K	935.72	1.4874	2.992
298.15 K	931.84	–	2.71
303.15 K	927.9	1.4831	2.467
308.15 K	924.02	–	2.255
313.15 K	920.11	1.4786	2.069
318.15 K	916.18	–	1.907

C1CCCCC1 [cyclohexane]
Conditions	mass density, [2] [kg/m3]	refractive index, [1]	viscosity, [2] [mPa·s]
293.15 K	778.51	1.4256	0.977
298.15 K	773.84	–	0.898
303.15 K	769.11	1.4205	0.828
308.15 K	764.36	–	0.766
313.15 K	759.57	1.4143	0.712
318.15 K	–	–	0.664

CC1CCCCC1 [methylcyclohexane] + C1C[C@@H]2[C@H]3CC[C@H](C3)[C@@H]2C1
x2 = 0
Conditions	mass density, [4] [kg/m3]	refractive index, [3]	viscosity, [4] [mPa·s]
293.15 K	769.35	1.422	0.733
298.15 K	765.04	–	0.687
303.15 K	760.71	1.4172	0.646
308.15 K	756.36	–	0.609
313.15 K	751.99	1.4118	0.576
318.15 K	747.6	–	0.546

CCCCC1CCCCC1 [butylcyclohexane] + C1C[C@@H]2[C@H]3CC[C@H](C3)[C@@H]2C1
x2 = 0
Conditions	mass density, [4] [kg/m3]	refractive index, [3]	viscosity, [4] [mPa·s]
293.15 K	799.47	1.4399	1.302
298.15 K	795.71	–	1.2
303.15 K	791.96	1.4354	1.111
308.15 K	788.2	–	1.032
313.15 K	784.43	1.4311	0.962
318.15 K	780.65	–	0.899

CCCCC1CCCCC1 [butylcyclohexane]
Conditions	mass density, [2] [kg/m3]	refractive index, [1]	viscosity, [2] [mPa·s]
293.15 K	799.47	1.4399	1.302
298.15 K	795.71	–	1.2
303.15 K	791.96	1.4354	1.111
308.15 K	788.2	–	1.032
313.15 K	784.43	1.4311	0.962
318.15 K	780.65	–	0.899

C1C[C@@H]2[C@H]3CC[C@H](C3)[C@@H]2C1 [exo-tetrahydrodicyclopentadiene] + CC1CCC(C)C(C)C1
x1 = 1
Conditions	mass density, [4] [kg/m3]	refractive index, [3]	viscosity, [4] [mPa·s]
293.15 K	935.72	1.4874	2.992
298.15 K	931.84	–	2.71
303.15 K	927.94	1.4831	2.467
308.15 K	924.02	–	2.255
313.15 K	920.11	1.4786	2.069
318.15 K	916.18	–	1.907

CCC1CCCCC1 [ethylcyclohexane]
Conditions	mass density, [2] [kg/m3]	refractive index, [1]	viscosity, [2] [mPa·s]
293.15 K	788.02	1.4319	0.845
298.15 K	784.01	–	0.791
303.15 K	779.98	1.4276	0.743
308.15 K	775.93	–	0.7
313.15 K	771.86	1.4225	0.661
318.15 K	767.78	–	0.626

C1CCCCC1 [cyclohexane] + C1C[C@@H]2[C@H]3CC[C@H](C3)[C@@H]2C1
x2 = 0
Conditions	mass density, [4] [kg/m3]	refractive index, [3]	viscosity, [4] [mPa·s]
293.15 K	778.51	1.4256	0.977
298.15 K	773.84	–	0.898
303.15 K	769.11	1.4205	0.828
308.15 K	764.36	–	0.766
313.15 K	759.57	1.4143	0.712
318.15 K	–	–	0.664
